{"source": "ChEMBL document CHEMBL5042488", "about": "“Synthesis, biological, and structural explorations of a series of μ-opioid receptor (MOR) agonists with high G protein signaling bias” (Eur J Med Chem, 2022)", "key": {"Mu-type opioid receptor [1]": {"target": "T1, Mu-type opioid receptor (Homo sapiens, UniProt P35372)", "T1 sequence (P35372 whole entry)": "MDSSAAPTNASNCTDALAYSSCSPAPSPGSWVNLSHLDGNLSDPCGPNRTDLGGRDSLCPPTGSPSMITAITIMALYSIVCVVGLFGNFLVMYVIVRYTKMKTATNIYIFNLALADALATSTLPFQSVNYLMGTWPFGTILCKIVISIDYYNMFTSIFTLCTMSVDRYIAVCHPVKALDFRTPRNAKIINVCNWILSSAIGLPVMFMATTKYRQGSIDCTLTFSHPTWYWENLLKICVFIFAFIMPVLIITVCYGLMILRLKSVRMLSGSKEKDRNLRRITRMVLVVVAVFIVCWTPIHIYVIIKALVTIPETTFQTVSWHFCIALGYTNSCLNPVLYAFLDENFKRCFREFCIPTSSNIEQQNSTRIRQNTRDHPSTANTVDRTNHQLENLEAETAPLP", "experiment": "Agonist activity at mu opioid receptor (unknown origin) assessed as increase in cAMP level incubated for 40 mins by spectrophotometry", "format": "functional"}, "[2]": {"experiment": "Metabolic stability in rat liver microsomes assessed as intrinsic clearance preincubated for 10 mins followed by NADPH addition and measured after 60 mins by LC-MS/MS analysis", "format": "ADME, Microsome", "conditions": "time 70 min, read-out: CLH"}, "[3]": {"experiment": "Apparent permeability across apical to basal membrane in human Caco-2 cells", "format": "ADME, cell-based"}, "Mu-type opioid receptor [4]": {"target": "T1, Mu-type opioid receptor", "experiment": "Agonist activity at mu opioid receptor (unknown origin) assessed as maximal cAMP level incubated for 40 mins by spectrophotometry relative to DAMGO", "format": "functional", "conditions": "filed as agonist"}, "[5]": {"experiment": "Metabolic stability in dog liver microsomes assessed as intrinsic clearance preincubated for 10 mins followed by NADPH addition and measured after 60 mins by LC-MS/MS analysis", "format": "ADME, Canis lupus familiaris, Microsome", "conditions": "time 70 min, read-out: CLH"}, "[6]": {"experiment": "Plasma protein binding in human plasma assessed as unbound fraction", "format": "ADME, cell-free"}, "[7]": {"experiment": "Plasma protein binding in rat plasma assessed as unbound fraction", "format": "ADME, cell-free"}, "[8]": {"experiment": "Plasma protein binding in dog plasma assessed as unbound fraction", "format": "ADME, cell-free, Canis lupus familiaris"}, "Cytochrome P450 2C19": {"target": "Cytochrome P450 2C19 (Homo sapiens, UniProt P33261)", "sequence (P33261 whole entry)": "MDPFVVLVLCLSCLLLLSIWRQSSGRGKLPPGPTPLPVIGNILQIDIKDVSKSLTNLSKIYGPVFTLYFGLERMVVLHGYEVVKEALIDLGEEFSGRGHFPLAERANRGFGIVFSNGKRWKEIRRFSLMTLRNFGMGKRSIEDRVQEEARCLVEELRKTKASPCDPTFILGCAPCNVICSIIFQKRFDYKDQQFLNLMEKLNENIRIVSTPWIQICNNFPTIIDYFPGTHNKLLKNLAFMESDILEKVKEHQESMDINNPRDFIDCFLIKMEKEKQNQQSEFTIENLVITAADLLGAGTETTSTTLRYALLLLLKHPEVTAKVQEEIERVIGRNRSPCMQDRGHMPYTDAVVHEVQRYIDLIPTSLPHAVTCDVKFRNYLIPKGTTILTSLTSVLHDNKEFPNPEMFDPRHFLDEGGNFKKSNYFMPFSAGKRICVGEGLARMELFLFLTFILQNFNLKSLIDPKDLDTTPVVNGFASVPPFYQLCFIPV", "experiment": "Inhibition of CYP2C19 (unknown origin)", "format": "ADME"}, "[9]": {"experiment": "Cmax in Sprague-Dawley rat at 2 mg/kg, iv by LC-MS/MS analysis", "format": "ADME, organism-based", "design": "route intravenous, dose 2 mg/kg", "conditions": "in vivo"}, "[10]": {"experiment": "AUClast in Sprague-Dawley rat at 2 mg/kg, iv by LC-MS/MS analysis", "format": "ADME, organism-based", "design": "time 0 - last, route intravenous, dose 2 mg/kg", "conditions": "in vivo"}, "[11]": {"experiment": "AUC(0 to infinity) in Sprague-Dawley rat at 2 mg/kg, iv by LC-MS/MS analysis", "format": "ADME, organism-based", "design": "route intravenous, time infinity, dose 2 mg/kg", "conditions": "in vivo"}, "[12]": {"experiment": "Apparent volume of distribution in Sprague-Dawley rat at 2 mg/kg, iv by LC-MS/MS analysis", "format": "ADME, organism-based", "conditions": "in vivo, read-out: Vz"}, "[13]": {"experiment": "Half life in Sprague-Dawley rat at 2 mg/kg, iv by LC-MS/MS analysis", "format": "ADME, organism-based", "conditions": "in vivo"}, "[14]": {"experiment": "MRT in Sprague-Dawley rat at 2 mg/kg, iv by LC-MS/MS analysis", "format": "ADME, organism-based", "conditions": "in vivo"}, "Mu-type opioid receptor [15]": {"target": "T1, Mu-type opioid receptor", "experiment": "Displacement of [3H]-Diprenorphine from human mu opiod receptor expressed in CHO cells incubated for 1 hr by competition binding assay", "format": "cell-based"}, "Mu-type opioid receptor [16]": {"target": "T1, Mu-type opioid receptor", "experiment": "Agonist activity at human mu opioid receptor expressed in HEK293 assessed as increase in calcium mobilization incubated for 60 mins by FLIPR assay", "format": "functional, cell-based"}, "[17]": {"target": "Delta-type opioid receptor (Homo sapiens, UniProt P41143)", "sequence (P41143 whole entry)": "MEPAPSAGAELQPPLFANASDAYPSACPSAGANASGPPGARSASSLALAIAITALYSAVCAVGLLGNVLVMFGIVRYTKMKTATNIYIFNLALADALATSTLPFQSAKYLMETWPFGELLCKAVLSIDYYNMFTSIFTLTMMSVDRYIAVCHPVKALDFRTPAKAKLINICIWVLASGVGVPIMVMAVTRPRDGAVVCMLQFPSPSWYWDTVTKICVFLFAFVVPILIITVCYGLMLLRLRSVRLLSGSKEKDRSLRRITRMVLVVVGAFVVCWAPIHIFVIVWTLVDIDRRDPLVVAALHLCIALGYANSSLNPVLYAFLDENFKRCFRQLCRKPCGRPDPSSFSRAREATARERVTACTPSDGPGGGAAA", "experiment": "Agonist activity at human delta opioid receptor expressed in HEK293 assessed as increase in calcium mobilization incubated for 60 mins by FLIPR assay", "format": "functional, cell-based"}, "[18]": {"target": "Kappa-type opioid receptor (Homo sapiens, UniProt P41145)", "sequence (P41145 whole entry)": "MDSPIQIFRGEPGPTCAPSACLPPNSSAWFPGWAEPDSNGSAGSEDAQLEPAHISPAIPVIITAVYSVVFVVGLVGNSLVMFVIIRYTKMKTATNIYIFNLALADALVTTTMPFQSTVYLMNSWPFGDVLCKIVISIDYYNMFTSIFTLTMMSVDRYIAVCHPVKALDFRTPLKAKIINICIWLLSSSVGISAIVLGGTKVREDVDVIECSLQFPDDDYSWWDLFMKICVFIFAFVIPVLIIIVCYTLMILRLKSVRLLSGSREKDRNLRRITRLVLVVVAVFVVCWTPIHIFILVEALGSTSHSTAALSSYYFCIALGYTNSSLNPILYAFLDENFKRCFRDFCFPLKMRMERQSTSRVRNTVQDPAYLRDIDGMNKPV", "experiment": "Agonist activity at human kappa opioid receptor expressed in HEK293 assessed as increase in calcium mobilization incubated for 60 mins by FLIPR assay", "format": "functional, cell-based"}, "Rattus norvegicus [19]": {"tested_on": "Rattus norvegicus", "experiment": "Antinociceptive activity in Sprague-Dawley rat assessed as increase in paw withdrawal latency at 0.3 mg/kg, sc measured after 30 mins by Hot-plate test", "format": "functional, organism-based"}, "Rattus norvegicus [20]": {"tested_on": "Rattus norvegicus", "experiment": "Antinociceptive activity in sc dosed Sprague-Dawley rat assessed as increase in thermal pain threshold measured after 30 mins by Hot-plate test", "format": "functional", "conditions": "0.5 h"}, "[21]": {"experiment": "Toxicity in Sprague-Dawley rat assessed as effect on respiration at 0.3 mg/kg, sc", "format": "organism-based", "conditions": "in vivo"}, "[22]": {"experiment": "Toxicity in Sprague-Dawley rat model assessed as effect on blood oxygen levels at […], sc measured after 30 mins by blood gas analyzer", "format": "organism-based", "conditions": "in vivo, 0.5 h, dose 0.32 mg/kg"}, "[23]": {"experiment": "Drug concentration in Sprague-Dawley rat brain at […], iv measured after 5 mins by LC-MS/MS analysis", "format": "ADME, organism-based", "conditions": "dose 0.25 mg/kg, read-out: Drug uptake"}, "[24]": {"experiment": "Ratio of drug concentration in brain to plasma of Sprague-Dawley rat at 2 mg/kg, iv measured at […] by LC-MS/MS analysis", "format": "ADME, organism-based", "conditions": "time 0.25 hrs"}, "[25]": {"experiment": "Drug concentration in Sprague-Dawley rat liver at […],iv measured after 30 mins by LC-MS/MS analysis", "format": "ADME, organism-based", "conditions": "in vivo, 0.5 h, dose 0.25 mg/kg"}, "Mu-type opioid receptor [26]": {"target": "T1, Mu-type opioid receptor", "experiment": "Agonist activity at mu opioid receptor (unknown origin) assessed as maximal beta arrestin-2 recruitment incubated for 3 days by PathHunter assay relative to DAMGO", "format": "functional", "conditions": "time 3.0 day"}, "Rattus norvegicus [27]": {"tested_on": "Rattus norvegicus", "experiment": "Antinociceptive activity in Sprague-Dawley rat incision pain model assessed as increase in paw withdrawal latency at 0.125 to 0.5 mg/kg, sc measured after 30 mins by Von Frey filament assay", "format": "functional", "conditions": "dose 0.125-0.5 mg/kg"}, "[28]": {"experiment": "Half life of compound", "format": "physicochemical"}}, "note": "pEC50, pIC50, pKi: −log10 of the molar value. Calls of active or inactive are those of the source."}
{"smiles": "Fc1ccc([C@]2(CCNCc3cccc(Cl)c3)CCO[C@]3(CCOC3)C2)nc1", "values": [{"measurement": "pEC50", "setting": "Mu-type opioid receptor [1]", "value": 9.46}, {"measurement": "CLint scaled", "setting": "[2]", "value": 176, "unit": "mL/min/kg"}, {"measurement": "Papp A→B", "setting": "[3]", "value": 5.2, "unit": "×10⁻⁶ cm/s"}, {"measurement": "Emax", "setting": "Mu-type opioid receptor [4]", "value": 91.4, "unit": "%"}, {"measurement": "CLint scaled", "setting": "[5]", "value": 152, "unit": "mL/min/kg"}, {"measurement": "fraction unbound", "setting": "[6]", "value": 0.34}, {"measurement": "fraction unbound", "setting": "[7]", "value": 0.33}, {"measurement": "fraction unbound", "setting": "[8]", "value": 0.17}, {"measurement": "pIC50", "setting": "Cytochrome P450 2C19", "value": "< 4.48"}, {"measurement": "Cmax", "setting": "[9]", "value": 252, "unit": "ng/mL"}, {"measurement": "AUC(0-t)", "setting": "[10]", "value": 132, "unit": "ng·h/mL"}, {"measurement": "AUC", "setting": "[11]", "value": 134.01, "unit": "ng·h/mL"}, {"measurement": "Vd", "setting": "[12]", "value": 10.8, "unit": "L/kg"}, {"measurement": "half-life", "setting": "[13]", "value": 119, "unit": "min"}, {"measurement": "MRT", "setting": "[14]", "value": 48.6, "unit": "min"}, {"measurement": "pKi", "setting": "Mu-type opioid receptor [15]", "value": 9.29}, {"measurement": "pEC50", "setting": "Mu-type opioid receptor [16]", "value": 8.29}, {"measurement": "pEC50", "setting": "[17]", "value": "< 5.00"}, {"measurement": "pEC50", "setting": "[18]", "value": "< 5.00"}, {"measurement": "Activity", "setting": "Rattus norvegicus [19]", "value": "Active"}, {"measurement": "ED50", "setting": "Rattus norvegicus [20]", "value": 0.23, "unit": "mg/kg"}, {"measurement": "Activity", "setting": "[21]", "value": "Non-Toxic"}, {"measurement": "Activity", "setting": "[22]", "value": 92.17, "unit": "%"}, {"measurement": "concentration at 5 min", "setting": "[23]", "value": 172, "unit": "ng/g"}, {"measurement": "Kp at […]", "setting": "[24]", "value": 4.61}, {"measurement": "Drug uptake", "setting": "[25]", "value": 58.6, "unit": "%"}, {"measurement": "Emax", "setting": "Mu-type opioid receptor [26]", "value": 1.6, "unit": "%"}, {"measurement": "Activity", "setting": "Rattus norvegicus [27]", "value": 50, "unit": "%"}, {"measurement": "half-life", "setting": "[28]", "value": 7.16, "unit": "min"}]}
